From the NIST ThermoML archive (doi:10.1021/je0602824)
Numbers after ± are expanded uncertainties.

Assay: xn = mol fraction of the nth substance listed
Conditions: 101 kPa, Liquid

`CCOS(=O)(=O)[O-].CCn1cc[n+](C)c1` [1-ethyl-3-methylimidazolium ethyl sulfate] + O gave a mass density (278.15 K, x2 = 0) of 1251.12 ± 3.3 kg/m3, a viscosity (278.15 K, x2 = 0) of 308 ± 46 mPa·s and a viscosity (278.15 K, x2 = 0.0001) of 308 ± 46 mPa·s. For the same compound, the mass density (278.15 K, x2 = 0.2112) was 1246.59 ± 2.9 kg/m3, the viscosity (278.15 K, x2 = 0.2245) was 150 ± 15 mPa·s and the viscosity (278.15 K, x2 = 0.4084) was 83 ± 5 mPa·s. The mass density (278.15 K, x2 = 0.4119) was 1239.56 ± 2.6 kg/m3, the mass density (278.15 K, x2 = 0.5939) was 1227.74 ± 2.3 kg/m3 and the viscosity (278.15 K, x2 = 0.5976) was 45 ± 2 mPa·s. It also gave a mass density (278.15 K, x2 = 0.7669) of 1201.83 ± 2 kg/m3, a viscosity (278.15 K, x2 = 0.7675) of 22 ± 2 mPa·s and a mass density (278.15 K, x2 = 0.8487) of 1175.63 ± 1.7 kg/m3. It also gave a mass density (278.15 K, x2 = 0.9292) of 1120.63 ± 1.3 kg/m3, a viscosity (278.15 K, x2 = 0.9292) of 6 ± 2 mPa·s and a mass density (278.15 K, x2 = 0.9683) of 1066.86 ± 0.98 kg/m3. The mass density (278.15 K, x2 = 0.9916) was 1021.13 ± 0.68 kg/m3, the mass density (288.15 K, x2 = 0) was 1244.13 ± 3.3 kg/m3 and the viscosity (288.15 K, x2 = 0) was 166 ± 17 mPa·s. It also gave a mass density (288.15 K, x2 = 0.2112) of 1239.79 ± 2.9 kg/m3, a viscosity (288.15 K, x2 = 0.2245) of 86 ± 5 mPa·s and a viscosity (288.15 K, x2 = 0.4084) of 49 ± 2 mPa·s. It also gave a mass density (288.15 K, x2 = 0.4119) of 1232.7 ± 2.5 kg/m3, a mass density (288.15 K, x2 = 0.5939) of 1220.8 ± 2.2 kg/m3 and a viscosity (288.15 K, x2 = 0.5976) of 27 ± 2 mPa·s. The mass density (288.15 K, x2 = 0.7669) was 1194.85 ± 1.9 kg/m3, the viscosity (288.15 K, x2 = 0.7675) was 14 ± 2 mPa·s and the mass density (288.15 K, x2 = 0.8487) was 1168.83 ± 1.7 kg/m3. It also gave a mass density (288.15 K, x2 = 0.9292) of 1115.02 ± 1.3 kg/m3, a viscosity (288.15 K, x2 = 0.9292) of 5 ± 2 mPa·s and a mass density (288.15 K, x2 = 0.9683) of 1063.25 ± 0.96 kg/m3. For the same compound, the mass density (288.15 K, x2 = 0.9916) was 1019.46 ± 0.67 kg/m3, the mass density (298.15 K, x2 = 0) was 1237.37 ± 3.2 kg/m3 and the viscosity (298.15 K, x2 = 0) was 95 ± 6 mPa·s. It also gave a mass density (298.15 K, x2 = 0.2112) of 1232.99 ± 2.8 kg/m3, a viscosity (298.15 K, x2 = 0.2245) of 54 ± 4 mPa·s and a viscosity (298.15 K, x2 = 0.4084) of 33 ± 2 mPa·s. For the same compound, the mass density (298.15 K, x2 = 0.4119) was 1225.85 ± 2.5 kg/m3, the mass density (298.15 K, x2 = 0.5939) was 1213.87 ± 2.2 kg/m3 and the viscosity (298.15 K, x2 = 0.5976) was 19 ± 2 mPa·s. The mass density (298.15 K, x2 = 0.7669) was 1187.81 ± 1.9 kg/m3, the viscosity (298.15 K, x2 = 0.7675) was 10 ± 2 mPa·s and the mass density (298.15 K, x2 = 0.8487) was 1161.92 ± 1.6 kg/m3. The mass density (298.15 K, x2 = 0.9292) was 1109.14 ± 1.3 kg/m3, the viscosity (298.15 K, x2 = 0.9292) was 4 mPa·s and the mass density (298.15 K, x2 = 0.9683) was 1059.04 ± 0.93 kg/m3. It also gave a mass density (298.15 K, x2 = 0.9916) of 1016.78 ± 0.65 kg/m3, a mass density (308.15 K, x2 = 0) of 1230.61 ± 3.2 kg/m3 and a viscosity (308.15 K, x2 = 0) of 62 ± 4 mPa·s. It also gave a mass density (308.15 K, x2 = 0.2112) of 1226.21 ± 2.8 kg/m3, a viscosity (308.15 K, x2 = 0.2245) of 36 ± 2 mPa·s and a viscosity (308.15 K, x2 = 0.4084) of 23 ± 2 mPa·s. It also gave a mass density (308.15 K, x2 = 0.4119) of 1219.02 ± 2.4 kg/m3, a mass density (308.15 K, x2 = 0.5939) of 1206.92 ± 2.1 kg/m3 and a viscosity (308.15 K, x2 = 0.5976) of 14 ± 2 mPa·s. For the same compound, the mass density (308.15 K, x2 = 0.7669) was 1180.72 ± 1.8 kg/m3, the viscosity (308.15 K, x2 = 0.7675) was 8 ± 2 mPa·s and the mass density (308.15 K, x2 = 0.8487) was 1154.9 ± 1.6 kg/m3. It also gave a mass density (308.15 K, x2 = 0.9292) of 1103 ± 1.2 kg/m3, a viscosity (308.15 K, x2 = 0.9292) of 4 mPa·s and a mass density (308.15 K, x2 = 0.9683) of 1054.27 ± 0.9 kg/m3. The mass density (308.15 K, x2 = 0.9916) was 1013.26 ± 0.63 kg/m3, the mass density (318.15 K, x2 = 0) was 1223.9 ± 3.1 kg/m3 and the viscosity (318.15 K, x2 = 0) was 41 ± 2 mPa·s. For the same compound, the mass density (318.15 K, x2 = 0.2112) was 1219.45 ± 2.7 kg/m3, the viscosity (318.15 K, x2 = 0.2245) was 26 ± 2 mPa·s and the viscosity (318.15 K, x2 = 0.4084) was 17 ± 2 mPa·s. For the same compound, the mass density (318.15 K, x2 = 0.4119) was 1212.21 ± 2.4 kg/m3, the mass density (318.15 K, x2 = 0.5939) was 1199.97 ± 2.1 kg/m3 and the viscosity (318.15 K, x2 = 0.5976) was 11 ± 2 mPa·s. For the same compound, the mass density (318.15 K, x2 = 0.7669) was 1173.56 ± 1.8 kg/m3, the viscosity (318.15 K, x2 = 0.7675) was 6 ± 2 mPa·s and the mass density (318.15 K, x2 = 0.8487) was 1147.77 ± 1.6 kg/m3. The mass density (318.15 K, x2 = 0.9292) was 1096.59 ± 1.2 kg/m3, the viscosity (318.15 K, x2 = 0.9292) was 3 mPa·s and the mass density (318.15 K, x2 = 0.9683) was 1049.01 ± 0.87 kg/m3. It also gave a mass density (318.15 K, x2 = 0.9916) of 1009.03 ± 0.6 kg/m3, a mass density (328.15 K, x2 = 0) of 1217.23 ± 3 kg/m3 and a viscosity (328.15 K, x2 = 0) of 30 ± 2 mPa·s. It also gave a mass density (328.15 K, x2 = 0.2112) of 1212.74 ± 2.7 kg/m3, a viscosity (328.15 K, x2 = 0.2245) of 19 ± 2 mPa·s and a viscosity (328.15 K, x2 = 0.4084) of 13 ± 2 mPa·s. It also gave a mass density (328.15 K, x2 = 0.4119) of 1205.41 ± 2.3 kg/m3, a mass density (328.15 K, x2 = 0.5939) of 1193.01 ± 2 kg/m3 and a viscosity (328.15 K, x2 = 0.5976) of 9 ± 2 mPa·s. For the same compound, the mass density (328.15 K, x2 = 0.7669) was 1166.34 ± 1.7 kg/m3, the viscosity (328.15 K, x2 = 0.7675) was 6 ± 2 mPa·s and the mass density (328.15 K, x2 = 0.8487) was 1140.52 ± 1.5 kg/m3. The mass density (328.15 K, x2 = 0.9292) was 1089.92 ± 1.1 kg/m3, the viscosity (328.15 K, x2 = 0.9292) was 3 mPa·s and the mass density (328.15 K, x2 = 0.9683) was 1043.29 ± 0.83 kg/m3. It also gave a mass density (328.15 K, x2 = 0.9916) of 1004.16 ± 0.57 kg/m3, a mass density (338.15 K, x2 = 0) of 1210.6 ± 3 kg/m3 and a viscosity (338.15 K, x2 = 0) of 21 ± 2 mPa·s. The mass density (338.15 K, x2 = 0.2112) was 1206.05 ± 2.6 kg/m3, the viscosity (338.15 K, x2 = 0.2245) was 15 ± 2 mPa·s and the viscosity (338.15 K, x2 = 0.4084) was 11 ± 2 mPa·s. The mass density (338.15 K, x2 = 0.4119) was 1198.63 ± 2.3 kg/m3, the mass density (338.15 K, x2 = 0.5939) was 1186.03 ± 2 kg/m3 and the viscosity (338.15 K, x2 = 0.5976) was 7 ± 2 mPa·s. For the same compound, the mass density (338.15 K, x2 = 0.7669) was 1159.05 ± 1.7 kg/m3, the viscosity (338.15 K, x2 = 0.7675) was 5 ± 2 mPa·s and the mass density (338.15 K, x2 = 0.8487) was 1133.14 ± 1.5 kg/m3. The mass density (338.15 K, x2 = 0.9292) was 1083 ± 1.1 kg/m3, the viscosity (338.15 K, x2 = 0.9292) was 3 mPa·s and the mass density (338.15 K, x2 = 0.9683) was 1037.15 ± 0.79 kg/m3. The mass density (338.15 K, x2 = 0.9916) was 998.72 ± 0.56 kg/m3, the mass density (348.15 K, x2 = 0) was 1204.01 ± 2.9 kg/m3 and the viscosity (348.15 K, x2 = 0) was 17 ± 2 mPa·s. For the same compound, the mass density (348.15 K, x2 = 0.2112) was 1199.4 ± 2.6 kg/m3, the viscosity (348.15 K, x2 = 0.2245) was 12 ± 2 mPa·s and the viscosity (348.15 K, x2 = 0.4084) was 9 ± 2 mPa·s. The mass density (348.15 K, x2 = 0.4119) was 1191.91 ± 2.2 kg/m3, the mass density (348.15 K, x2 = 0.5939) was 1179.05 ± 2 kg/m3 and the viscosity (348.15 K, x2 = 0.5976) was 6 ± 2 mPa·s. For the same compound, the mass density (348.15 K, x2 = 0.7669) was 1151.68 ± 1.6 kg/m3, the viscosity (348.15 K, x2 = 0.7675) was 4 mPa·s and the mass density (348.15 K, x2 = 0.8487) was 1125.7 ± 1.4 kg/m3. For the same compound, the mass density (348.15 K, x2 = 0.9292) was 1075.83 ± 1.1 kg/m3, the viscosity (348.15 K, x2 = 0.9292) was 2 mPa·s and the mass density (348.15 K, x2 = 0.9683) was 1030.61 ± 0.75 kg/m3. The mass density (348.15 K, x2 = 0.9916) was 992.76 ± 0.59 kg/m3.
